Tests used:
[1] = system: microbial load of Salacia extract; assay: % microbial load reduction in Salacia extract; details: for Total cfu/g: untreated 21000
From the text: Example 4: % Microbial Load Reduction in Ayurvedic Herbs and Extracts by Using Sodium Dichloroisocyanurate (NaDCC)

[2] = system: Bacillus licheniformis, and Bacillus paralicheniformis; assay: Susceptibility of bacteria isolated from Salacia reticulata to NaDCC; type: cell-based
Method: (§1) The bacteria (Bacillus licheniformis, and Bacillus paralicheniformis) and fungus (Aspergillus sps) isolated from the Salacia reticulata and bacteria Bacillus licheniformis isolated from Garcinia cambogia extract was tested for susceptibility for the sensitivity towards NaDCC.

Aspergillus sps = assay: Susceptibility of fungus isolated from Salacia reticulata to NaDCC; type: cell-based
Method: as §1

Bacillus licheniformis = assay: Susceptibility of bacteria isolated from Garcinia cambogia extract to NaDCC; type: cell-based
Method: as §1

[3] = temperate and tropical climates; cited from earlier work
coliforms and E. coli = details: 25 mg/ml, raw river water; cited from earlier work
[4] = system: 29 Gram-positive and 29 Gram-negative bacteria, as well as 66 fungi; details: independent of pH and temperature; cited from earlier work
[5] = Stability of NaDCC solution (HDPE bottle); details: tables 6 to 9
mammalian cell vero6 = assay: Anti-COVID activity: cell survival (cytotoxicity); details: vero6 cells infected with COVID-19 virus
COVID-19 virus = assay: Anti-COVID activity: inhibition of virus replication; details: Severe acute respiratory syndrome coronavirus 2, read-out: Inhibition of the virus replication
[6] = Cyanuric acid and free available chlorine in lung homogenate after NaDCC DPI; details: administered as a DPI
From the text: Further, the so obtained NaDCC DPI was clinically assessed by determining the amount of cyanuric acid in the tissues.

Escherichia coli = details: cited from earlier work
Bacterial membrane = details: cited from earlier work
[7] = NaDCC 0.05% to 5% mixed with Salacia extract (inference)

Row | Structure (SMILES) | Total cfu/g ([1]; 0.02 g NaDCC in 10 g Salacia extract (0.2%), batch RDP/SR/073) [cfu/g] | Total cfu/g ([1]; 0.04 g NaDCC in 10 g Salacia extract (0.4%), batch RDP/SR/074) [cfu/g] | % microbial reduction ([1]; 0.2% of input extract, batch RDP/SR/073) [%] | % microbial reduction ([1]; 0.4% of input extract, batch RDP/SR/074) [%] | Reduction in bacterial counts [1, 7] [logs] | Reduction of bacterial load [1, 7] [%] | Antibacterial activity (FIG. 1) [2] | Anti-fungal activity (FIG. 1) (Aspergillus sps) | Antibacterial activity (FIG. 2) (Bacillus licheniformis) | Shelf life [3] [years] | Reduction of viable bacteria (coliforms and E. coli) | Antimicrobial activity [4] | Stability in acetic acid and cyanuric acid as a solution (inference) [5] | Survival of cell (FIG. 3B) (mammalian cell vero6) | inhibition at 600 ppm (COVID-19 virus) [%] | Metabolism / tissue accumulation [6] | HOCl concentration that completely inhibited cell division (Escherichia coli; Escherichia coli) [µM] | IC50 (Escherichia coli; read-out: HOCl required for 50% inhibition of bacterial growth, 5×10^8 Escherichia coli/ml) [µM] | Concentration below which bacterial membrane disruption and release of cell contents is not observed (Bacterial membrane)
1 | O=c1[n-]c(=O)n(Cl)c(=O)n1Cl.[Na+] [NaDCC, Sodium 3,5-dichloro-2,4,6-trioxo-1,3,5-triazinan-1-ide] | <10 | <10 | >99 | >99 | 4 | 99.99 | effective antibacterial activity | anti-fungal activity | effective antibacterial activity | 5 | 1.8-2.8 logs | effective | stable | increase the survival of cell | > 100 | metabolized fast with a short half-life and not accumulated in tissues | – | – | –
2 | OCl [HOCl, Hypochlorous acid] | – | – | – | – | – | – | – | – | – | – | – | – | – | – | – | – | 50 | 20 | below 5 mM
